This passage reports EC50, Activity and ED50 results from ChEMBL document CHEMBL1146245, “Antitumor agents. 258. Syntheses and evaluation of dietary antioxidant--taxoid conjugates as novel cytotoxic agents” (2007).

Values after ≈ are worked out from the molar mass of the structure shown. Active and inactive are the calls of the source. The calls are words filed in the database; no cut-off is given here.

What all share (type): functional
One assay concerns A-431. Briefly: Cytotoxicity against human A431 cells. The settings on record: for EC50: read-out: ED50 (the source's name).
Another assay has as its system KB. The assay can be described thus: Cytotoxicity against human KB cells by sulforhodamine B assay. To be noted: for EC50: read-out: ED50 (the source's name). A general note: In SRB staining, fixed cells bind dye roughly in proportion to their protein.
Another assay concerns 1A9. Briefly: Cytotoxicity against human 1A9 cells by sulforhodamine B assay. To be noted: for EC50: read-out: ED50 (the source's name).
Another assay concerns HCT-8. Briefly: Cytotoxicity against human HCT8 cells.
In another assay the test system is A549. Briefly: Cytotoxicity against human A549 cells.
Assay [1] is described as follows: Cytotoxicity against MDR human KB-VIN cells expressing P-glycoprotein.

With `CC(=O)O[C@H]1C(=O)[C@]2(C)[C@@H](OC(=O)CN(C)C)C[C@H]3OC[C@@]3(OC(C)=O)[C@H]2[C@H](OCc2ccccc2)[C@]2(O)C[C@H](OC(=O)[C@H](OC(=O)CCC(=O)Oc3c(C)c(C)c4c(c3C)OC(C)(CCC[C@@H](C)CCC[C@@H](C)CCCC(C)C)CC4)[C@@H](NCc3ccccc3)c3ccccc3)C(C)=C1C2(C)C` (stereo partly specified) [listing 1 of 2 here], the EC50 with A-431 was 0.2 µg/mL (≈ 0.14 µM).

As to `CC(=O)O[C@H]1C(=O)[C@]2(C)[C@@H](OC(=O)CN(C)C)C[C@H]3OC[C@@]3(OC(C)=O)[C@H]2[C@H](OCc2ccccc2)[C@]2(O)C[C@H](OC(=O)[C@H](OC(=O)CCC(=O)Oc3c(C)c(C)c4c(c3C)OC(C)(C)CC4)[C@@H](NCc3ccccc3)c3ccccc3)C(C)=C1C2(C)C`, the EC50 turned out to be 9.79 µg/mL (≈ 8.07 µM) with KB and 1.01 µg/mL (≈ 0.832 µM) with 1A9.

Regarding `CC(=O)O[C@H]1C(=O)[C@@]2(C)[C@H]([C@H](OCc3ccccc3)[C@]3(O)C[C@H](OC(=O)[C@H](OC(=O)/C=C(C)/C=C/C=C(C)/C=C/C4=C(C)CCCC4(C)C)[C@@H](NCc4ccccc4)c4ccccc4)C(C)=C1C3(C)C)[C@]1(OC(C)=O)CO[C@@H]1C[C@@H]2O`, the EC50 with KB was 0.2 µg/mL (≈ 0.18 µM); in the assay on 1A9, 0.49 µg/mL (≈ 0.442 µM).

Turning to `COc1cc(/C=C/C(C)=O)ccc1OC(=O)CCC(=O)O[C@@H](C(=O)O[C@H]1C[C@@]2(O)[C@@H](OCc3ccccc3)[C@@H]3[C@]4(OC(C)=O)CO[C@@H]4C[C@H](O)[C@@]3(C)C(=O)[C@H](OC(C)=O)C(=C1C)C2(C)C)[C@@H](NCc1ccccc1)c1ccccc1`, the EC50 with KB and in the assay with 1A9 was 0.005 µg/mL (≈ 0.00454 µM) each time.

For `CCN(CC)CCC(=O)O[C@H]1C[C@H]2OC[C@@]2(OC(C)=O)[C@H]2[C@H](OCc3ccccc3)[C@]3(O)C[C@H](OC(=O)[C@H](OC(=O)CCC(=O)Oc4c(C)c(C)c5c(c4C)OC(C)(CCC[C@@H](C)CCC[C@@H](C)CCCC(C)C)CC5)[C@@H](NCc4ccccc4)c4ccccc4)C(C)=C([C@@H](OC(C)=O)C(=O)[C@]12C)C3(C)C` (stereo in doubt; 27a), the outcome (with HCT-8; in the assay on A549; in the assay with KB; in assay [1]; in the assay on 1A9; in the assay with A-431) was inactive.

With `CC(=O)O[C@H]1C(=O)[C@@]2(C)[C@H]([C@H](OCc3ccccc3)[C@]3(O)C[C@H](OC(=O)[C@H](OC(=O)CCC(=O)Oc4ccc5c(C)cc(=O)oc5c4)[C@@H](NCc4ccccc4)c4ccccc4)C(C)=C1C3(C)C)[C@]1(OC(C)=O)CO[C@@H]1C[C@@H]2O`, the EC50 with KB was 0.14 µg/mL (≈ 0.129 µM); in the assay on 1A9, 0.005 µg/mL (≈ 0.00461 µM).

In the case of `COc1cc(/C=C/C(=O)CC(=O)/C=C/c2ccc(O)c(OC)c2)ccc1O` [CURCUMIN], the result (with HCT-8; with A549; in the assay with KB; in assay [1]; with 1A9) was inactive. Also, in the assay on A-431, the EC50 was determined as 0.75 µg/mL (≈ 2.04 µM).

Take `CC(=O)O[C@H]1C(=O)[C@]2(C)[C@@H](OC(=O)CN(C)C)C[C@H]3OC[C@@]3(OC(C)=O)[C@H]2[C@H](OCc2ccccc2)[C@]2(O)C[C@H](OC(=O)[C@H](OC(=O)CCC(=O)Oc3c(C)c(C)c4c(c3C)OC(C)(CCC[C@@H](C)CCC[C@@H](C)CCCC(C)C)CC4)[C@@H](NCc3ccccc3)c3ccccc3)C(C)=C1C2(C)C` (stereo partly specified) [listing 2 of 2 here]: the result (in the assay with HCT-8; in the assay with A549; in the assay on KB; in assay [1]; with 1A9) was inactive.

As for `CC(=O)O[C@H]1C(=O)[C@]2(C)[C@@H](OC(=O)CCC(=O)O)C[C@H]3OC[C@@]3(OC(C)=O)[C@H]2[C@H](OCc2ccccc2)[C@]2(O)C[C@H](OC(=O)[C@H](OC(=O)CCC(=O)Oc3c(C)c(C)c4c(c3C)OC(C)(CCC[C@@H](C)CCC[C@@H](C)CCCC(C)C)CC4)[C@@H](NCc3ccccc3)c3ccccc3)C(C)=C1C2(C)C.CCN(CC)CC` (stereo partly specified), the EC50 in the assay on A-431 amounted to 0.2 µg/mL.

For `CC(=O)O[C@H]1C(=O)[C@@]2(C)[C@H]([C@H](OCc3ccccc3)[C@]3(O)C[C@H](OC(=O)[C@H](OC(=O)CCC(=O)Oc4ccc5c(=O)c(O)c(-c6ccccc6)oc5c4)[C@@H](NCc4ccccc4)c4ccccc4)C(C)=C1C3(C)C)[C@]1(OC(C)=O)CO[C@@H]1C[C@@H]2O`, the EC50 with KB came out at 0.26 µg/mL (≈ 0.224 µM); in the assay with 1A9 it was 0.13 µg/mL (≈ 0.112 µM).

For `CC(=O)O[C@H]1C(=O)[C@]2(C)[C@@H](OC(=O)CN(C)C)C[C@H]3OC[C@@]3(OC(C)=O)[C@H]2[C@H](OCc2ccccc2)[C@]2(O)C[C@H](OC(=O)[C@H](OC(=O)CCC(=O)Oc3c(C)c(C)c4c(c3C)OC(C)(CCC[C@@H](C)CCC[C@@H](C)CCCC(C)C)CC4)[C@@H](NCc3ccccc3)c3ccccc3)C(C)=C1C2(C)C.CS(=O)(=O)O` (stereo partly specified), the EC50 in the assay with A-431 was 0.1 µg/mL.

With `COc1cc(/C=C/C(=O)CC(=O)/C=C/c2ccc(OC(=O)CCC(=O)O[C@@H](C(=O)O[C@H]3C[C@@]4(O)[C@@H](OCc5ccccc5)[C@@H]5[C@]6(OC(C)=O)CO[C@@H]6C[C@H](O)[C@@]5(C)C(=O)[C@H](OC(C)=O)C(=C3C)C4(C)C)[C@@H](NCc3ccccc3)c3ccccc3)c(OC)c2)ccc1O`, the result in the assay with HCT-8 was inactive. Further, the EC50 in the assay with A549 (read-out: ED50 (the source's name)) was 0.03 µg/mL (≈ 0.0235 µM); with KB it was 0.01 µg/mL (≈ 0.00783 µM); in assay [1] (KBVIN, read-out: ED50 (the source's name)), 0.2 µg/mL (≈ 0.157 µM); in the assay on 1A9, 0.03 µg/mL (≈ 0.0235 µM); with A-431, 0.03 µg/mL (≈ 0.0235 µM).

Regarding `COc1cc(/C=C/C(C)=O)ccc1OC(=O)CCC(=O)O[C@@H](C(=O)O[C@H]1C[C@@]2(O)[C@@H](OCc3ccccc3)[C@@H]3[C@]4(OC(C)=O)CO[C@@H]4C[C@H](OC(=O)CN(C)C)[C@@]3(C)C(=O)[C@H](OC(C)=O)C(=C1C)C2(C)C)[C@@H](NCc1ccccc1)c1ccccc1`, the EC50 in the assay with KB was 0.7 µg/mL (≈ 0.591 µM); in the assay on 1A9 it was 0.63 µg/mL (≈ 0.531 µM).

As for VITAMIN E, the result (with HCT-8; with A549; in the assay with KB; in assay [1]; in the assay on 1A9) was inactive. In the assay with A-431, this molecule returned an ED50 of 0.75 µg/mL.

As for `CC(=O)O[C@H]1C(=O)[C@@]2(C)[C@H]([C@H](OCc3ccccc3)[C@]3(O)C[C@H](OC(=O)[C@H](OC(=O)CCC(=O)Oc4cc(O)c5c(=O)cc(-c6ccccc6)oc5c4)[C@@H](NCc4ccccc4)c4ccccc4)C(C)=C1C3(C)C)[C@]1(OC(C)=O)CO[C@@H]1C[C@@H]2O`, the results for the EC50 in the assay on KB and with 1A9 were 0.47 µg/mL (≈ 0.404 µM) and 0.2 µg/mL (≈ 0.172 µM), respectively.

For the molecule `CC(=O)O[C@H]1C(=O)[C@]2(C)[C@@H](OC(=O)CCC(=O)O)C[C@H]3OC[C@@]3(OC(C)=O)[C@H]2[C@H](OCc2ccccc2)[C@]2(O)C[C@H](OC(=O)[C@H](OC(=O)CCC(=O)Oc3c(C)c(C)c4c(c3C)OC(C)(CCC[C@@H](C)CCC[C@@H](C)CCCC(C)C)CC4)[C@@H](NCc3ccccc3)c3ccccc3)C(C)=C1C2(C)C` (stereo partly specified) [listing 1 of 2 here], the EC50 with A-431 was 0.1 µg/mL (≈ 0.0695 µM).

For the molecule `CC(=O)O[C@H]1C(=O)[C@]2(C)[C@@H](OC(=O)CN(C)C)C[C@H]3OC[C@@]3(OC(C)=O)[C@H]2[C@H](OCc2ccccc2)[C@]2(O)C[C@H](OC(=O)[C@H](OC(=O)/C=C(C)/C=C/C=C(C)/C=C/C3=C(C)CCCC3(C)C)[C@@H](NCc3ccccc3)c3ccccc3)C(C)=C1C2(C)C`, the EC50 in the assay on KB amounted to 7.65 µg/mL (≈ 6.41 µM); in the assay with 1A9 it was 4.47 µg/mL (≈ 3.75 µM).

For the molecule `CC(=O)O[C@H]1C(=O)[C@]2(C)[C@@H](OC(=O)CCC(=O)O)C[C@H]3OC[C@@]3(OC(C)=O)[C@H]2[C@H](OCc2ccccc2)[C@]2(O)C[C@H](OC(=O)[C@H](OC(=O)CCC(=O)Oc3c(C)c(C)c4c(c3C)OC(C)(CCC[C@@H](C)CCC[C@@H](C)CCCC(C)C)CC4)[C@@H](NCc3ccccc3)c3ccccc3)C(C)=C1C2(C)C` (stereo partly specified) [listing 2 of 2 here], the result (in the assay on HCT-8; in the assay with A549; in the assay with KB; in assay [1]; in the assay with 1A9) was inactive.

As for `CCN(CC)CCC(=O)O[C@H]1C[C@H]2OC[C@@]2(OC(C)=O)[C@H]2[C@H](OCc3ccccc3)[C@]3(O)C[C@H](OC(=O)[C@H](OC(=O)CCC(=O)Oc4c(C)c(C)c5c(c4C)OC(C)(CCC[C@@H](C)CCC[C@@H](C)CCCC(C)C)CC5)[C@@H](NCc4ccccc4)c4ccccc4)C(C)=C([C@@H](OC(C)=O)C(=O)[C@]12C)C3(C)C` (stereo in doubt; 27), the result (in the assay with HCT-8; with A549; with KB; in assay [1]; with 1A9; in the assay on A-431) was inactive.

Turning to `CC(=O)O[C@H]1C(=O)[C@@]2(C)[C@H]([C@H](OCc3ccccc3)[C@]3(O)C[C@H](OC(=O)[C@H](OC(=O)CCC(=O)Oc4c(C)c(C)c5c(c4C)OC(C)(C)CC5)[C@@H](NCc4ccccc4)c4ccccc4)C(C)=C1C3(C)C)[C@]1(OC(C)=O)CO[C@@H]1C[C@@H]2O`, the EC50 in the assay on KB amounted to 0.94 µg/mL (≈ 0.833 µM); with 1A9, 0.2 µg/mL (≈ 0.177 µM).

For `COc1cccc(/C=C\C(C)=O)c1OC(=O)CCC(=O)O[C@@H](C(=O)O[C@H]1C[C@@]2(O)[C@@H](OCc3ccccc3)[C@@H]3[C@]4(OC(C)=O)CO[C@@H]4C[C@H](OC(=O)CN(C)C)[C@@]3(C)C(=O)[C@H](OC(C)=O)C(=C1C)C2(C)C)[C@@H](NCc1ccccc1)c1ccccc1`, the EC50 with KB turned out to be 0.34 µg/mL (≈ 0.287 µM); with 1A9, 0.19 µg/mL (≈ 0.16 µM).

Regarding `CC(=O)O[C@H]1C(=O)[C@]2(C)[C@@H](OC(=O)CN(C)C)C[C@H]3OC[C@@]3(OC(C)=O)[C@H]2[C@H](OCc2ccccc2)[C@]2(O)C[C@H](OC(=O)[C@H](OC(=O)CCC(=O)Oc3ccc4c(=O)c(O)c(-c5ccccc5)oc4c3)[C@@H](NCc3ccccc3)c3ccccc3)C(C)=C1C2(C)C`, the EC50 was determined as 0.09 µg/mL (≈ 0.0722 µM) in the assay on KB and 0.11 µg/mL (≈ 0.0882 µM) in the assay on 1A9.
